Source: ChEMBL document CHEMBL4507257, “Data for DCP probe ABT-100” (2021)

What was measured:
[1] = system: Tyrosine-protein kinase ABL1 (Homo sapiens), P00519 [E255K]; settings: Compound concentration 1000.0 nM
[2] = target: Cyclin-dependent kinase-like 3 (Homo sapiens) (UniProt Q8IVW4); settings: Compound concentration 1000.0 nM
[3] = system: Mast/stem cell growth factor receptor Kit (Homo sapiens), P10721 [V559D,V654A]; settings: Compound concentration 1000.0 nM
[4] = target: Ephrin type-A receptor 1 (Homo sapiens) (UniProt P21709); settings: Compound concentration 1000.0 nM
[5] = target: Histamine H4 receptor (Homo sapiens) (UniProt Q9H3N8); settings: Compound concentration 10.0 uM
[6] = system: Epidermal growth factor receptor (Homo sapiens), P00533 [L858R,T790M]; settings: Compound concentration 1000.0 nM
[7] = target: Tyrosine-protein kinase CSK (Homo sapiens) (UniProt P41240); settings: Compound concentration 1000.0 nM
[8] = target: Serine/threonine-protein kinase/endoribonuclease IRE1 (Homo sapiens) (UniProt O75460); settings: Compound concentration 1000.0 nM
[9] = target: Activin receptor type-1 (Homo sapiens) (UniProt Q04771); settings: Compound concentration 1000.0 nM
[10] = target: Cyclin-dependent kinase 13 (Homo sapiens) (UniProt Q14004); settings: Compound concentration 1000.0 nM
[11] = target: Mitogen-activated protein kinase kinase kinase 10 (Homo sapiens) (UniProt Q02779); settings: Compound concentration 1000.0 nM
[12] = target: Mitogen-activated protein kinase kinase kinase kinase 3 (Homo sapiens) (UniProt Q8IVH8); settings: Compound concentration 1000.0 nM
[13] = target: Casein kinase II subunit alpha (Homo sapiens) (UniProt P68400); settings: Compound concentration 1000.0 nM
[14] = target: Testis-specific serine/threonine-protein kinase 3 (Homo sapiens) (UniProt Q96PN8); settings: Compound concentration 1000.0 nM
[15] = target: Ribosomal protein S6 kinase alpha-3 (Homo sapiens) (UniProt P51812); settings: Compound concentration 1000.0 nM
[16] = target: Calcium/calmodulin-dependent protein kinase type II subunit delta (Homo sapiens) (UniProt Q13557); settings: Compound concentration 1000.0 nM
[17] = target: Serine/threonine-protein kinase PLK3 (Homo sapiens) (UniProt Q9H4B4); settings: Compound concentration 1000.0 nM
[18] = target: MAP kinase-interacting serine/threonine-protein kinase 2 (Homo sapiens) (UniProt Q9HBH9); settings: Compound concentration 1000.0 nM
[19] = target: 5'-AMP-activated protein kinase catalytic subunit alpha-2 (Homo sapiens) (UniProt P54646); settings: Compound concentration 1000.0 nM
[20] = target: Calcium/calmodulin-dependent protein kinase kinase 2 (Homo sapiens) (UniProt Q96RR4); settings: Compound concentration 1000.0 nM
[21] = system: Tyrosine-protein kinase ABL1 (Homo sapiens), P00519 [F317L]; settings: Compound concentration 1000.0 nM
[22] = target: ALK tyrosine kinase receptor (Homo sapiens) (UniProt Q9UM73); settings: Compound concentration 1000.0 nM
[23] = target: Ephrin type-B receptor 1 (Homo sapiens) (UniProt P54762); settings: Compound concentration 1000.0 nM
[24] = target: Rhodopsin kinase GRK1 (Homo sapiens) (UniProt Q15835); settings: Compound concentration 1000.0 nM
[25] = target: Tyrosine-protein kinase Lyn (Homo sapiens) (UniProt P07948); settings: Compound concentration 1000.0 nM
[26] = system: Epidermal growth factor receptor (Homo sapiens), P00533 [UNDEFINED MUTATION]; settings: Compound concentration 1000.0 nM
[27] = system: Epidermal growth factor receptor (Homo sapiens), P00533 [L858R]; settings: Compound concentration 1000.0 nM
[28] = system: Tyrosine-protein kinase ABL1 (Homo sapiens), P00519 [Q252H]; settings: Compound concentration 1000.0 nM
[29] = system: Epidermal growth factor receptor (Homo sapiens), P00533 [T790M]; settings: Compound concentration 1000.0 nM
[30] = target: Dual specificity protein kinase CLK3 (Homo sapiens) (UniProt P49761); settings: Compound concentration 1000.0 nM
[31] = target: 5'-AMP-activated protein kinase catalytic subunit alpha-1 (Homo sapiens) (UniProt Q13131); settings: Compound concentration 1000.0 nM
[32] = target: Phosphatidylinositol 4-kinase beta (Homo sapiens) (UniProt Q9UBF8); settings: Compound concentration 1000.0 nM
[33] = target: 5-hydroxytryptamine receptor 5A (Homo sapiens) (UniProt P47898); settings: Compound concentration 10.0 uM
[34] = target: Dual serine/threonine and tyrosine protein kinase (Homo sapiens) (UniProt Q6XUX3); settings: Compound concentration 1000.0 nM
[35] = target: Mitogen-activated protein kinase 3 (Homo sapiens) (UniProt P27361); settings: Compound concentration 1000.0 nM
[36] = target: Serine/threonine-protein kinase haspin (Homo sapiens) (UniProt Q8TF76); settings: Compound concentration 1000.0 nM
[37] = system: Tyrosine-protein kinase ABL1 (Homo sapiens), P00519 [F317I]; settings: Compound concentration 1000.0 nM
[38] = target: Interleukin-1 receptor-associated kinase 4 (Homo sapiens) (UniProt Q9NWZ3); settings: Compound concentration 1000.0 nM
[39] = target: Macrophage colony-stimulating factor 1 receptor (Homo sapiens) (UniProt P07333); settings: Compound concentration 1000.0 nM
[40] = target: Serine/threonine-protein kinase NIM1 (Homo sapiens) (UniProt Q8IY84); settings: Compound concentration 1000.0 nM
[41] = target: Ribosomal protein S6 kinase alpha-6 (Homo sapiens) (UniProt Q9UK32); settings: Compound concentration 1000.0 nM
[42] = target: Ribosomal protein S6 kinase alpha-2 (Homo sapiens) (UniProt Q15349); settings: Compound concentration 1000.0 nM
[43] = target: Testis-specific serine/threonine-protein kinase 1 (Homo sapiens) (UniProt Q9BXA7); settings: Compound concentration 1000.0 nM
[44] = target: Proto-oncogene tyrosine-protein kinase ROS (Homo sapiens) (UniProt P08922); settings: Compound concentration 1000.0 nM
[45] = system: Mast/stem cell growth factor receptor Kit (Homo sapiens), P10721 [L576P]; settings: Compound concentration 1000.0 nM

Sequence of Activin receptor type-1 (Homo sapiens) (Q04771 whole entry): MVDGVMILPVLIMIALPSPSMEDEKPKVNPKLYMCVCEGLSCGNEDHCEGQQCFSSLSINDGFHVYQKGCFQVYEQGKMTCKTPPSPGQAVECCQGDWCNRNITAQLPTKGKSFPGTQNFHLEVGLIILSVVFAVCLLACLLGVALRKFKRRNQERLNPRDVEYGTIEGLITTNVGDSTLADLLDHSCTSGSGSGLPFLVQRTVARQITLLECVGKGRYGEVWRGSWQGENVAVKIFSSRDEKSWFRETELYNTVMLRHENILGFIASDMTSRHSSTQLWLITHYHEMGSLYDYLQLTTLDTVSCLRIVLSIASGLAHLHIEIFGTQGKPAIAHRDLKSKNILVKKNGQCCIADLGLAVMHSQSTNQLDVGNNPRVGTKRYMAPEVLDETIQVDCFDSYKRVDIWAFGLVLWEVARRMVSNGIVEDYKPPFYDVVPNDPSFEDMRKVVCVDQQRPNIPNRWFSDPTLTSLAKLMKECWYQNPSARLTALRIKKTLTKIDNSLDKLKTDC
Sequence of Serine/threonine-protein kinase NIM1 (Homo sapiens) (Q8IY84 whole entry): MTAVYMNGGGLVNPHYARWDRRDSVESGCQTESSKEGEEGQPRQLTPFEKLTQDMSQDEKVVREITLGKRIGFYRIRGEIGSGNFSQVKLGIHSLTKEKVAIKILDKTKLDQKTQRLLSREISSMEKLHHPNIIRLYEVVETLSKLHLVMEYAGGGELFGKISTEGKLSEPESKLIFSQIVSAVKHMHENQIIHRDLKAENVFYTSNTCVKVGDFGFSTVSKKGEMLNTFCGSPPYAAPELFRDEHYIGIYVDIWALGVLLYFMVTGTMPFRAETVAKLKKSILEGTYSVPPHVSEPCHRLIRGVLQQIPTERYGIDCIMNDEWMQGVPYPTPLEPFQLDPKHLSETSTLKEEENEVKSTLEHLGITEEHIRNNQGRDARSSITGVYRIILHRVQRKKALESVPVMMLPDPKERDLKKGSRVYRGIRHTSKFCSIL
Sequence of Ribosomal protein S6 kinase alpha-2 (Homo sapiens) (Q15349 whole entry): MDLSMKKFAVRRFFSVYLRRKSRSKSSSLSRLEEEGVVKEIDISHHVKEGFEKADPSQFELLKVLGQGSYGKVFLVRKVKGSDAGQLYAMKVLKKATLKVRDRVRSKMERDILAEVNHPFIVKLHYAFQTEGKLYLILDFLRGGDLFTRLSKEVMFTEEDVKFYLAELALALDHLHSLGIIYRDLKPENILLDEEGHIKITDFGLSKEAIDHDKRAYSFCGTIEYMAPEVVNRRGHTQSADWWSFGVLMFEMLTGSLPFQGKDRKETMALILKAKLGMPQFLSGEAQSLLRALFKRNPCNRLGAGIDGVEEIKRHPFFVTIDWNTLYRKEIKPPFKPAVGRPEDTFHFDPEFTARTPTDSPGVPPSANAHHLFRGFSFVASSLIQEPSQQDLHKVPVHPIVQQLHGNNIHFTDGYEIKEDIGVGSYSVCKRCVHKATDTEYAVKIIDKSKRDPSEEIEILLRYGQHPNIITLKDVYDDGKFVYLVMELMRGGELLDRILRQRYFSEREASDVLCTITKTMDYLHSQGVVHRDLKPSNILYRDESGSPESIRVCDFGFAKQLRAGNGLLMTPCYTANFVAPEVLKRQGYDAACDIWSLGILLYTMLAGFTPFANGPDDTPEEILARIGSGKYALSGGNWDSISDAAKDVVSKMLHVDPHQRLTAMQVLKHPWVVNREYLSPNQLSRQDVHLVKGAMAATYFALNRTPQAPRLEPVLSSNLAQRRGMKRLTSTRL
Sequence of Cyclin-dependent kinase-like 3 (Homo sapiens) (Q8IVW4 whole entry, looked up): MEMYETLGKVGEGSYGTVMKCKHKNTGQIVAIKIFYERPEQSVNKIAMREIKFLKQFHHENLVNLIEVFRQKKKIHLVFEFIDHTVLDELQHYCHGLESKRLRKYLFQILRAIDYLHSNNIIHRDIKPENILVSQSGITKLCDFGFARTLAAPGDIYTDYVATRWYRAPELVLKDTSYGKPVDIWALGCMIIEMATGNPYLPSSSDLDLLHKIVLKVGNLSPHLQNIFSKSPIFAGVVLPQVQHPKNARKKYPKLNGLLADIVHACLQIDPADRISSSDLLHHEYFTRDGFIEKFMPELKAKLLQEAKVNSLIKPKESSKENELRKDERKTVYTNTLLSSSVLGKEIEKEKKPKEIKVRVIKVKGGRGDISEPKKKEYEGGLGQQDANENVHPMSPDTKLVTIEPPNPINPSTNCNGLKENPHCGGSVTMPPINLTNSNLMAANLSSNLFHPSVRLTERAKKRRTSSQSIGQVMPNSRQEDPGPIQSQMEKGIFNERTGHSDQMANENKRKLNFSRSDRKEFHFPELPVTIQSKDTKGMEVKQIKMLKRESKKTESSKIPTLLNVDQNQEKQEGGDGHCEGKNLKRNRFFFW
Sequence of Serine/threonine-protein kinase/endoribonuclease IRE1 (Homo sapiens) (O75460 19-977 limits assumed): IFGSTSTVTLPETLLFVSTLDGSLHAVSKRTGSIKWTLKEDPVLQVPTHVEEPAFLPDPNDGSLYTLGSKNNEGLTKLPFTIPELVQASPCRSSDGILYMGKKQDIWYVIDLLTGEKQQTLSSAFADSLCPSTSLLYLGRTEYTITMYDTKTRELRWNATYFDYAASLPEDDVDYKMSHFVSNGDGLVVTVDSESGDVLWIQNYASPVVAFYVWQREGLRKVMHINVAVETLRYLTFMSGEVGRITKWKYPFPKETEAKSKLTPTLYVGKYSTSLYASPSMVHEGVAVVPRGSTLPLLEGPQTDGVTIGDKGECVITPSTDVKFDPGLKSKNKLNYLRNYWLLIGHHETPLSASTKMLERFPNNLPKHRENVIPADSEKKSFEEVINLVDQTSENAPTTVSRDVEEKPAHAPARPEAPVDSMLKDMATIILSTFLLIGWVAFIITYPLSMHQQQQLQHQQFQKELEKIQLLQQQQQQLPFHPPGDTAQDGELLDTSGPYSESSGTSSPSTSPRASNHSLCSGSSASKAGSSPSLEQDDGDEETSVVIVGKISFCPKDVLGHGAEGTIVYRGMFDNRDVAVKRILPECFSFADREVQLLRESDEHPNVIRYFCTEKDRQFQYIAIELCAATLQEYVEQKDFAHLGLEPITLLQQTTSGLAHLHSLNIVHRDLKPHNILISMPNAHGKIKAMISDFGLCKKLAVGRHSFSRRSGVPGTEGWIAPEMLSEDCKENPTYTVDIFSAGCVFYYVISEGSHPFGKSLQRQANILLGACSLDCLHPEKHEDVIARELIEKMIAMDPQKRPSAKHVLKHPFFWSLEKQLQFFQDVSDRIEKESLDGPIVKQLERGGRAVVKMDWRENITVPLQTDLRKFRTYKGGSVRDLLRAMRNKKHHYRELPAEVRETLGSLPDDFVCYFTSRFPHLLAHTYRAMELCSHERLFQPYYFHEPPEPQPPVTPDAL
Sequence of Mitogen-activated protein kinase 3 (Homo sapiens) (P27361 whole entry): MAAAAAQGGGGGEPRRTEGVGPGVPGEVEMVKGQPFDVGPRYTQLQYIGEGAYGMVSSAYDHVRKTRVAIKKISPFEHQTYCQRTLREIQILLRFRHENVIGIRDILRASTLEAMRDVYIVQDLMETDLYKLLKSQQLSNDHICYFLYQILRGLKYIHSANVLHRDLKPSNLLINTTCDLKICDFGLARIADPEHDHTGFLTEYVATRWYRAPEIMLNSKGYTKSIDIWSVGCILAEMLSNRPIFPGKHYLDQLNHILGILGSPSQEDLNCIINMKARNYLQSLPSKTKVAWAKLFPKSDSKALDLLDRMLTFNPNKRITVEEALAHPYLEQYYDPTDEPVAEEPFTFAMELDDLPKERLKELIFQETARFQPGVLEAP
Sequence of Phosphatidylinositol 4-kinase beta (Homo sapiens) (Q9UBF8 2-816 limits assumed): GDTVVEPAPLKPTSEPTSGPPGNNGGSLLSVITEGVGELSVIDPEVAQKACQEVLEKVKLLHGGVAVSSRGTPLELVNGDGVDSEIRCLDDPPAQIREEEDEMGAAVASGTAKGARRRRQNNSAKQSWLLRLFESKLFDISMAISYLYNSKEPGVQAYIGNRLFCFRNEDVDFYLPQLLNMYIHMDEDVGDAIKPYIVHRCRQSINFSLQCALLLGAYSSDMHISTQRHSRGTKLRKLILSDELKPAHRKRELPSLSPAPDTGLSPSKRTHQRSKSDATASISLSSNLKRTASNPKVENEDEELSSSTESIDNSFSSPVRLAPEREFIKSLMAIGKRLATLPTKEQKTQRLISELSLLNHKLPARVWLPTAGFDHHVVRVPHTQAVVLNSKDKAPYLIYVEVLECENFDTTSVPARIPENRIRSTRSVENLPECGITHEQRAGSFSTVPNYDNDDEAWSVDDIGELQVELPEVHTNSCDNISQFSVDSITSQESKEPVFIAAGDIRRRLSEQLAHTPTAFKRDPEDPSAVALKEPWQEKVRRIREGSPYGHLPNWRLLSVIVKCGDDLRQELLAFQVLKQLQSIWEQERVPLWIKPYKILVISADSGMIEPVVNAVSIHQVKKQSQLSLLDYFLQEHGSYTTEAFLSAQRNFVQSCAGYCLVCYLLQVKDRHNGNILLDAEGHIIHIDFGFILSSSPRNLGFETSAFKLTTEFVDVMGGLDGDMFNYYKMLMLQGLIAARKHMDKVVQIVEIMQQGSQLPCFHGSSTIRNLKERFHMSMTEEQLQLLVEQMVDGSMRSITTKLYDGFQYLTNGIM
Sequence of Tyrosine-protein kinase CSK (Homo sapiens) (P41240 2-450 limits assumed): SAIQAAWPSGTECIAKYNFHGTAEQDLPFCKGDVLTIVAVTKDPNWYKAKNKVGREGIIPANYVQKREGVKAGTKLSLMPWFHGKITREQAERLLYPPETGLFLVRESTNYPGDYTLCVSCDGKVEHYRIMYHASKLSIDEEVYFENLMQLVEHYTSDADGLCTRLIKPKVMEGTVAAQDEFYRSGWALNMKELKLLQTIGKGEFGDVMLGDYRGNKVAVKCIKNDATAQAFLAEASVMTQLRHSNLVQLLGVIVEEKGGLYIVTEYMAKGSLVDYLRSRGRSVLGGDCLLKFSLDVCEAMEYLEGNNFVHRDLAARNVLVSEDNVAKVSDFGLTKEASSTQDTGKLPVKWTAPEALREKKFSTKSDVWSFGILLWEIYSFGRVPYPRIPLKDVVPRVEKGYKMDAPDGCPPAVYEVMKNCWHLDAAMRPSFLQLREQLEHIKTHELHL

**Q.** What does the source list for `Cn1cncc1[C@@](O)(COc1ccc(C#N)cc1-c1ccc(OC(F)(F)F)cc1)c1ccc(C#N)cc1` [A-108]?
**A.** residual activity [1]: 72%; residual activity [2]: 81%; residual activity [3]: 100%; residual activity [4]: 93%; inhibition [5]: -3.79%; residual activity [6]: 96%; residual activity [7]: 100%; residual activity [8]: 95%; residual activity [9]: 100%; residual activity [10]: 87%; residual activity [11]: 98%; residual activity [12]: 100%; residual activity [13]: 100%; residual activity [14]: 100%; residual activity [15]: 72%; residual activity [16]: 95%; residual activity [17]: 88%; residual activity [18]: 74%; residual activity [19]: 87%; residual activity [20]: 97%; residual activity [21]: 100%; residual activity [22]: 70%; residual activity [23]: 100%; residual activity [24]: 100%; residual activity [25]: 100%; residual activity [26]: 100%; residual activity [27]: 100%; residual activity [28]: 84%; residual activity [29]: 68%; residual activity [30]: 100%; residual activity [31]: 100%; residual activity [32]: 80%; inhibition [33]: 0.81%; residual activity [34]: 100%; residual activity [35]: 83%; residual activity [36]: 100%; residual activity [37]: 100%; residual activity [38]: 80%; residual activity [39]: 100%; residual activity [40]: 97%; residual activity [41]: 100%; residual activity [42]: 100%; residual activity [43]: 70%; residual activity [44]: 96%; residual activity [45]: 95%

**Q.** For `Cn1cncc1[C@](O)(COc1ccc(C#N)cc1-c1ccc(OC(F)(F)F)cc1)c1ccc(C#N)cc1` [ABT-100], which residual activity [1] is on record?
**A.** Its residual activity is 94%.

**Q.** And the residual activity [2]?
**A.** The residual activity was 87%.

**Q.** What about the residual activity [3] of the same molecule?
**A.** Its residual activity is 100%.

**Q.** And the residual activity [4]?
**A.** Its residual activity is 38%.

**Q.** What about the inhibition [5] of the same molecule?
**A.** The inhibition was -6.36%.

**Q.** And the residual activity [6]?
**A.** Its residual activity is 100%.

**Q.** What about the residual activity [7] of the same molecule?
**A.** Its residual activity is 82%.

**Q.** What about the residual activity [8] of the same molecule?
**A.** The residual activity was 100%.

**Q.** And the residual activity [9]?
**A.** The residual activity was 78%.

**Q.** What about the residual activity [10] of the same molecule?
**A.** The residual activity was 67%.

**Q.** What about the residual activity [11] of the same molecule?
**A.** The residual activity was 55%.

**Q.** What about the residual activity [12] of the same molecule?
**A.** Its residual activity is 100%.

**Q.** And the residual activity [13]?
**A.** The residual activity was 63%.

**Q.** What about the residual activity [14] of the same molecule?
**A.** The residual activity was 98%.

**Q.** And the residual activity [15]?
**A.** Its residual activity is 87%.

**Q.** And the residual activity [16]?
**A.** Its residual activity is 100%.

**Q.** And the residual activity [17]?
**A.** The residual activity was 89%.

**Q.** What about the residual activity [18] of the same molecule?
**A.** The residual activity was 85%.

**Q.** And the residual activity [19]?
**A.** Its residual activity is 100%.

**Q.** What about the residual activity [20] of the same molecule?
**A.** The residual activity was 100%.

**Q.** And the residual activity [21]?
**A.** Its residual activity is 100%.

**Q.** What about the residual activity [22] of the same molecule?
**A.** The residual activity was 100%.

**Q.** What about the residual activity [23] of the same molecule?
**A.** The residual activity was 98%.

**Q.** And the residual activity [24]?
**A.** Its residual activity is 95%.

**Q.** And the residual activity [25]?
**A.** The residual activity was 90%.

**Q.** What about the residual activity [26] of the same molecule?
**A.** The residual activity was 78%.

**Q.** What about the residual activity [27] of the same molecule?
**A.** Its residual activity is 86%.

**Q.** And the residual activity [28]?
**A.** The residual activity was 100%.

**Q.** And the residual activity [29]?
**A.** The residual activity was 100%.

**Q.** What about the residual activity [30] of the same molecule?
**A.** The residual activity was 75%.

**Q.** What about the residual activity [31] of the same molecule?
**A.** The residual activity was 99%.

**Q.** And the residual activity [32]?
**A.** The residual activity was 94%.

**Q.** And the inhibition [33]?
**A.** Its inhibition is 1.81%.

**Q.** And the residual activity [34]?
**A.** The residual activity was 90%.

**Q.** What about the residual activity [35] of the same molecule?
**A.** The residual activity was 90%.

**Q.** What about the residual activity [36] of the same molecule?
**A.** The residual activity was 100%.

**Q.** What about the residual activity [37] of the same molecule?
**A.** The residual activity was 98%.

**Q.** What about the residual activity [38] of the same molecule?
**A.** Its residual activity is 75%.

**Q.** And the residual activity [39]?
**A.** The residual activity was 93%.

**Q.** And the residual activity [40]?
**A.** The residual activity was 87%.

**Q.** What about the residual activity [41] of the same molecule?
**A.** Its residual activity is 93%.

**Q.** And the residual activity [42]?
**A.** Its residual activity is 89%.

**Q.** And the residual activity [43]?
**A.** The residual activity was 100%.

**Q.** What about the residual activity [44] of the same molecule?
**A.** The residual activity was 89%.

**Q.** And the residual activity [45]?
**A.** Its residual activity is 100%.
